The supplement of paper PMC10307832

Legend:
Assay in all cases: relative viability (nuclei count vs DMSO), 5 days (fraction); higher = more cells survive
Serdemetan + Bortezomib = compound: c1ccc2c(CCNc3ccc(Nc4ccncc4)cc3)c[nH]c2c1 [Serdemetan] + CC(C)C[C@H](NC(=O)[C@H](Cc1ccccc1)NC(=O)c1cnccn1)B(O)O [Bortezomib] (partner 0.002 µM)
Procedure, shortened: (§1)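 Dosing by pin tool came one day after lung cancer cell lines were seeded in 1536-well plates, using either one drug or a fixed anchor-drug dose plus five library-drug doses (not always all listed) in √10 steps. After 5 days, nuclei were counted on 4× images. Relative viability is treated-well nuclei count divided by vehicle-well nuclei count, and values are medians of duplicate plates.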

Selisistat + Olaparib = compound: C1CC(C2=C(C1)C3=C(N2)C=CC(=C3)Cl)C(=O)N [Selisistat] + O=C(c1cc(Cc2n[nH]c(=O)c3ccccc23)ccc1F)N1CCN(C(=O)C2CC2)CC1 [Olaparib] (partner 8 µM)
Procedure, shortened: as §1

Selisistat + Alpelisib = compound: C1CC(C2=C(C1)C3=C(N2)C=CC(=C3)Cl)C(=O)N [Selisistat] + Cc1nc(NC(=O)N2CCC[C@H]2C(N)=O)sc1-c1ccnc(C(C)(C)C(F)(F)F)c1 [Alpelisib] (partner 2 µM)
Procedure, shortened: as §1

Serdemetan + Linsitinib = compound: c1ccc2c(CCNc3ccc(Nc4ccncc4)cc3)c[nH]c2c1 [Serdemetan] + C[C@]1(O)C[C@@H](c2nc(-c3ccc4ccc(-c5ccccc5)nc4c3)c3c(N)nccn32)C1 [Linsitinib] (partner 1 µM)
Procedure, shortened: as §1

Cell Line	relative viability (Serdemetan + Bortezomib; first compound 0.04 µM)	relative viability (Serdemetan + Bortezomib; first compound 0.1265 µM)	relative viability (Serdemetan + Bortezomib; first compound 0.4 µM)	relative viability (Serdemetan + Bortezomib; first compound 1.265 µM)	relative viability (Serdemetan + Bortezomib; first compound 4 µM)	relative viability (Selisistat + Olaparib; first compound 0.4 µM)	relative viability (Selisistat + Olaparib; first compound 1.265 µM)	relative viability (Selisistat + Olaparib; first compound 4 µM)	relative viability (Selisistat + Olaparib; first compound 12.65 µM)	relative viability (Selisistat + Olaparib; first compound 40 µM)	relative viability (Selisistat + Alpelisib; first compound 0.4 µM)	relative viability (Selisistat + Alpelisib; first compound 1.265 µM)	relative viability (Selisistat + Alpelisib; first compound 4 µM)	relative viability (Selisistat + Alpelisib; first compound 12.65 µM)	relative viability (Selisistat + Alpelisib; first compound 40 µM)	relative viability (Serdemetan + Linsitinib; first compound 0.04 µM)	relative viability (Serdemetan + Linsitinib; first compound 0.1265 µM)	relative viability (Serdemetan + Linsitinib; first compound 0.4 µM)	relative viability (Serdemetan + Linsitinib; first compound 1.265 µM)	relative viability (Serdemetan + Linsitinib; first compound 4 µM)
SK-LU-1	1.15	0.921	1.24	1.1	0.988	0.567	0.408	0.404	0.495	0.529	1.02	1.05	1.33	1.03	0.846	1.13	1.14	1.07	1.03	0.732
COR-L 105	0.775	0.764	0.563	0.7	0.745	0.703	0.67	0.815	0.659	0.576	0.888	0.929	1.03	0.964	0.846	0.86	1.14	0.847	1.04	0.845
NCI-H1975	0.346	0.378	0.377	0.313	0.314	0.765	0.728	0.776	0.653	0.605	0.656	0.553	0.588	0.604	0.579	1.01	1.04	0.974	0.985	1.19
Calu-6	1.1	0.969	1.04	0.864	0.672	0.561	0.572	0.634	0.552	0.617	1.02	0.896	1.01	0.841	0.873	0.895	0.962	0.958	0.913	0.698
NCI-H1993	1.08	1.06	1.05		1.11	1.06	1.07		1.15	1.03	0.575	0.67		0.775	0.721	0.688	0.648	0.677		0.713
RERF-LC-KJ	1.19	1.16	1.06	1.03	0.797	0.962	0.916	0.844	0.828	0.839	0.853	0.754	0.632	0.789	0.73	0.869	0.851	0.857	0.745	0.727
NCI-H23	1.1	1.07	1.05	0.81	1.09	0.234	0.353		0.305	0.31	0.811	0.871		0.662	0.688	0.571	0.684	0.747	0.504	0.561
